For eleven compounds, Emax, Activity and IC50 results are on record in ChEMBL document CHEMBL1142979, “Nonprenylated rotenoids, a new class of potent breast cancer resistance protein inhibitors” (J Med Chem, 2007).

Holding throughout (assay type): cell-based
One series has as its target T1, BCRP (ABCG2) (Homo sapiens, UniProt Q9UNQ0).
T1 sequence (Q9UNQ0 whole entry): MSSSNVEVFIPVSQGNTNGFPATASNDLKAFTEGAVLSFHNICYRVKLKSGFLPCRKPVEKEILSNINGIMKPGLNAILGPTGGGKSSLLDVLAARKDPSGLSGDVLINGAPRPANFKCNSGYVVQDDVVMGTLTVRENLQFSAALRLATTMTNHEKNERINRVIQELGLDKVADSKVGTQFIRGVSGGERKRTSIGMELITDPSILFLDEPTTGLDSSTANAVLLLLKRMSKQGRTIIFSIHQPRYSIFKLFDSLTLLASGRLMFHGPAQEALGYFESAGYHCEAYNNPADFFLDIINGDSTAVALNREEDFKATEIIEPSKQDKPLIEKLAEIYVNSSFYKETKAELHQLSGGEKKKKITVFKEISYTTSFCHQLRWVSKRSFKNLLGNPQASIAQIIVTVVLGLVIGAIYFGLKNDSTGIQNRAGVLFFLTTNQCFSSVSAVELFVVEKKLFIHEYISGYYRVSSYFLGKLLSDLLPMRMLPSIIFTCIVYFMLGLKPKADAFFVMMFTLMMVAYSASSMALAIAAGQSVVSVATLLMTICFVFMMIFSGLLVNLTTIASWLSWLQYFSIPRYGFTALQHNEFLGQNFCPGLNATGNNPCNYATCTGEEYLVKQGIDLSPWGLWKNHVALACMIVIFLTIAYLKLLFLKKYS
Description: Inhibition of BCRP expressed in human HEK293 cells assessed as maximal mitoxantrone accumulation at 20 uM relative control. Conditions: HEK293 cells that express BCRP, probe mitoxantrone, read-out: Activity.

In series [1] the target is T2, Broad substrate specificity ATP-binding cassette transporter ABCG2 (Homo sapiens, UniProt Q9UNQ0).
T2 sequence (Q9UNQ0 whole entry): T1 sequence (Q9UNQ0 whole entry)
In words: Inhibition of BCRP expressed in human HEK293 cells assessed as maximal mitoxantrone accumulation at 10 uM relative control. Conditions: hek293, 10 µM. More on the design: scale not given: the % may be the effect or the level left.

The target of series [2] is T2, Broad substrate specificity ATP-binding cassette transporter ABCG2. In words: Inhibition of BCRP expressed in human HEK293 cells assessed as maximal mitoxantrone accumulation at 5 uM relative control. Details: scale not given: the % may be the effect or the level left. Conditions: hek293, 5 µM.
The target is the same in series [3]. In words: Inhibition of BCRP expressed in human HEK293 cells assessed as maximal mitoxantrone accumulation.

For the compound `COc1cc2oc3c(c(=O)c2c(O)c1C)-c1cccc(O)c1OC3O` (stereo not drawn) [9-O-METHYL-4-HYDROXYBOERAVINONE B], the Emax at 20 µM on BCRP (ABCG2) was 15%. In the case of `COC1Oc2ccccc2-c2c1oc1cc(O)c(C)c(O)c1c2=O` (stereo not drawn) [BOERAVINONE A], in series [1], the Activity turned out to be 27%. Turning to `Cc1c(O)cc2oc3c(c(=O)c2c1O)-c1ccccc1OC3O` (stereo not drawn) [BOERAVINONE B], the Activity in series [1] stood at 55%.

Take `COc1cc2c(c(O)c1C)C(=O)[C@]1(O)c3cccc(O)c3OC[C@H]1O2` [BOERAVINONE C]: the Activity in series [1] came to 31%. For the compound `Cc1c(O)cc2oc3c(c(=O)c2c1O)-c1ccc(O)cc1OC3O` (stereo not drawn) [BOERAVINONE E], the Activity in series [1] is 56%. Consider `COc1cc(O)c2c(=O)c3c(oc2c1)C(OC)Oc1c(O)cccc1-3` (stereo not drawn) [BOERAVINONE G], for which the Activity in series [2] worked out at 92%. Moreover, in series [3], the IC50 was determined as 700 nM. The matching figures for `COc1cc2oc3c(c(=O)c2c(O)c1C)-c1cccc(O)c1OC3OC` (stereo not drawn) [BOERAVINONE H]: 68% and 2500 nM. `COc1c(C)c(O)c2c(=O)c3c(oc2c1O)C(O)Oc1ccccc1-3` (stereo not drawn) [BOERAVINONE I]: the Emax at 20 µM at BCRP (ABCG2) stood at 12%.

Take `Cc1c(O)cc2oc3oc4cc(O)ccc4c3c(=O)c2c1O` [BOERAVINONE J]: the Emax at 20 µM on BCRP (ABCG2) worked out at 15%. Take `O=c1c2c(oc3cc(O)cc(O)c13)C(O)Oc1ccccc1-2` (stereo not drawn) [COCCINEONE B]: in series [1], the Activity is reported as 29%.

As to `COc1cc2c(c(O)c1OC)C(=O)[C@]1(O)c3ccccc3OC[C@H]1O2` [COCCINEONE E], the Activity in series [1] was found to be 15%.

The term IC50 denotes the point on the concentration scale where inhibition reaches its midpoint.
